Experimental data as given in patent US20220062240A1, “METHODS OF TREATING CANCER USING A CLK INHIBITOR” (BioSplice Therapeutics, Inc., priority 2018, published 2022).
Like-named read-outs stand apart in the source and are kept apart here.

Tests used:
[1] = target: T1, CLK2 (Homo sapiens, UniProt P49760); assay: CLK2 kinase activity assay (Z-lyte, Ser/Thr 6 peptide); assay type: biochemical
T1 construct: purchased Thermo Fisher (Life Technologies), Z'-LYTE Kinase Assay Kits
Procedure: All reactions were performed in duplicate.

[2] = system: BT-549; assay: CellTiter-Glo Viability Assay, breast cancer; assay type: cell-based; settings: Homo sapiens, BT-549, 96 h
[3] = system: CAMA1; assay: CellTiter-Glo Viability Assay, breast cancer; assay type: cell-based; settings: Homo sapiens, CAMA-1, 96 h
[4] = system: DU4475; assay: CellTiter-Glo Viability Assay, breast cancer; assay type: cell-based; settings: Homo sapiens, DU-4475, 96 h
[5] = system: HCC1599; assay: CellTiter-Glo Viability Assay, breast cancer; assay type: cell-based; settings: Homo sapiens, HCC1599, 96 h
[6] = system: MCF7; assay: CellTiter-Glo Viability Assay, breast cancer; assay type: cell-based; settings: Homo sapiens, MCF7, 96 h
[7] = system: MDA-MB-231-Luc; assay: CellTiter-Glo Viability Assay, breast cancer; assay type: cell-based; settings: Homo sapiens, 96 h
[8] = system: T47D; assay: CellTiter-Glo Viability Assay, breast cancer; assay type: cell-based; settings: Homo sapiens, 96 h
[9] = system: ZR-75-1; assay: CellTiter-Glo Viability Assay, breast cancer; assay type: cell-based; settings: Homo sapiens, ZR-75-1, 96 h
[10] = system: all 50 cell lines; assay: CellTiter-Glo Viability Assay, average across all cell lines; assay type: cell-based; settings: Homo sapiens, read-out: average EC50 for inhibition of cancer cell proliferation
Summary of the method: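 Cancer cell lines of several tumour types plated at 300-3,000 cells/well and exposed to compound in duplicate for four days at 37° C, 5% CO2, with DMSO-treated controls. Viability read by CellTiter-Glo luminescence (ATP content); EC50 derived from dose-response curves.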

[11] = system: colorectal cancer (6 cell lines); assay: CellTiter-Glo Viability Assay, colorectal cancer; assay type: cell-based; settings: Homo sapiens
[12] = system: haematopoietic & lymphoid tumors (13 cell lines); assay: CellTiter-Glo Viability Assay, haematopoietic & lymphoid tumors; assay type: cell-based; settings: Homo sapiens
[13] = system: liver cancer (3 cell lines); assay: CellTiter-Glo Viability Assay, liver cancer; assay type: cell-based; settings: Homo sapiens
[14] = system: lung cancer (4 cell lines); assay: CellTiter-Glo Viability Assay, lung cancer; assay type: cell-based; settings: Homo sapiens
[15] = system: ovarian cancer (4 cell lines); assay: CellTiter-Glo Viability Assay, ovarian cancer; assay type: cell-based; settings: Homo sapiens
[16] = system: pancreatic cancer (8 cell lines); assay: CellTiter-Glo Viability Assay, pancreatic cancer; assay type: cell-based; settings: Homo sapiens
[17] = system: prostate cancer (5 cell lines); assay: CellTiter-Glo Viability Assay, prostate cancer; assay type: cell-based; settings: Homo sapiens
[18] = target: CLK3 (Homo sapiens, UniProt P49761); assay: CLK3 kinase activity assay (Z-lyte, Ser/Thr 18 peptide)
CLK3, sequence (P49761 whole entry): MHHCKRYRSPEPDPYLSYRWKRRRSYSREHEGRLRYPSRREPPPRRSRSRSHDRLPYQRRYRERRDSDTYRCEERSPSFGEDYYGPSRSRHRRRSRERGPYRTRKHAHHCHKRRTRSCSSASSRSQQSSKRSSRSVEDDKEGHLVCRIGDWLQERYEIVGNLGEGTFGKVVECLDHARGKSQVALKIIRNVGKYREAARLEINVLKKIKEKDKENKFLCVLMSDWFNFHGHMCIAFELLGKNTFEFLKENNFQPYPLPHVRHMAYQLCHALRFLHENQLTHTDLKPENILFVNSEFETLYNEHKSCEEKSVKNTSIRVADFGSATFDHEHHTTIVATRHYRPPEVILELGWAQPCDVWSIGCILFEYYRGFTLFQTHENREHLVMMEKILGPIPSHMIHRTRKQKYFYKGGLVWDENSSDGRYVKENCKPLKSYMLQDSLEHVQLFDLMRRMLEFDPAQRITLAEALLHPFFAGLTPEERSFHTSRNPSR

T1 sequence (P49760 whole entry): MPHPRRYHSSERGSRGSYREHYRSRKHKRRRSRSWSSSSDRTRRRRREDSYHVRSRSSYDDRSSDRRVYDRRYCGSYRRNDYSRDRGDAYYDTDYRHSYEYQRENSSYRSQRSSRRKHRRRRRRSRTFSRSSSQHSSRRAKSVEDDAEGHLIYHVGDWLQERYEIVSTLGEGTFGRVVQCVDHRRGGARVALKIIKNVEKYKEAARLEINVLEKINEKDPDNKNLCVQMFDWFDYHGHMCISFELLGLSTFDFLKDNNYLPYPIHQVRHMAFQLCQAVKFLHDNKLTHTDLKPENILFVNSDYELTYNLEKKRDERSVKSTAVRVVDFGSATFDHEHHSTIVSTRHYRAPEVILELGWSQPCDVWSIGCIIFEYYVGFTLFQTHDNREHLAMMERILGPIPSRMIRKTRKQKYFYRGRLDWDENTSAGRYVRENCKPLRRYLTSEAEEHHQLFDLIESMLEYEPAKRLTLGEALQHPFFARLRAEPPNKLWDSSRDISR

## CN1CCC(N(C)c2cc(C(=O)Nc3cc4cc(-c5cnn(C)c5)ccc4cn3)ccn2)CC1 [Compound 72]
[1]
  EC50: 1.3 nM
[2]
  EC50: 186 nM
[3]
  EC50: 294 nM
[4]
  EC50: 121 nM
[5]
  EC50: 147 nM
[6]
  EC50: 670 nM
[7]
  EC50: 230 nM
[8]
  EC50: 506 nM
[9]
  EC50: 284 nM
[10]
  EC50: 206 nM
[11]; DLD-1, read-out: Colorectal cancer, EC50 (μM) DLD-1
  EC50: 0.157 µM
[11]; HCT-116, read-out: Colorectal cancer, EC50 (μM) HCT116
  EC50: 0.103 µM
[11]; HT-29, read-out: Colorectal cancer, EC50 (μM) HT29
  EC50: 0.257 µM
[11]; SW48, read-out: Colorectal cancer, EC50 (μM) SW48
  EC50: 0.057 µM
[11]; SW480, read-out: Colorectal cancer, EC50 (μM) SW480
  EC50: 0.129 µM
[11]; SW-620, read-out: Colorectal cancer, EC50 (μM) SW620
  EC50: 0.072 µM
[12]; DND41, read-out: Haematopoietic & Lymphoid tumors, EC50 (μM) DND-41
  EC50: 0.167 µM
[12]; HL-60, read-out: Haematopoietic & Lymphoid tumors, EC50 (μM) HL-60
  EC50: 0.453 µM
[12]; JM1, read-out: Haematopoietic & Lymphoid tumors, EC50 (μM) JM1
  EC50: 0.047 µM
[12]; JeKo-1, read-out: Haematopoietic & Lymphoid tumors, EC50 (μM) JeKo-1
  EC50: 0.054 µM
[12]; Jurkat, read-out: Haematopoietic & Lymphoid tumors, EC50 (μM) JURKAT, Clone E6-1
  EC50: 0.337 µM
[12]; Kasumi 1, read-out: Haematopoietic & Lymphoid tumors, EC50 (μM) KASUMI-1
  EC50: 0.13 µM
[12]; MOLT-4, read-out: Haematopoietic & Lymphoid tumors, EC50 (μM) MOLT-4
  EC50: 0.189 µM
[12]; MV4-11, read-out: Haematopoietic & Lymphoid tumors, EC50 (μM) MV-4-11
  EC50: 0.049 µM
[12]; Rec1, read-out: Haematopoietic & Lymphoid tumors, EC50 (μM) REC-1
  EC50: 0.049 µM
[12]; SU-DHL-4, read-out: Haematopoietic & Lymphoid tumors, EC50 (μM) SUDHL4
  EC50: 0.229 µM
[12]; TF-1, read-out: Haematopoietic & Lymphoid tumors, EC50 (μM) TF-1
  EC50: 0.314 µM
[12]; Toledo, read-out: Haematopoietic & Lymphoid tumors, EC50 (μM) TOLEDO
  EC50: 0.057 µM
[12]; read-out: Haematopoietic & Lymphoid tumors, EC50 (μM) Loucy
  EC50: 0.139 µM
[13]; HepG2, read-out: Liver cancer, EC50 HEPG2
  EC50: 136 nM
[13]; PLC-PRF-5, read-out: Liver cancer, EC50 PLC/PRF/5
  EC50: 386 nM
[13]; SNU-398, read-out: Liver cancer, EC50 SNU398
  EC50: 51 nM
[14]; A-427, read-out: Lung cancer, EC50 (μM) A427
  EC50: 0.136 µM
[14]; HCC78, read-out: Lung cancer, EC50 (μM) HCC-78
  EC50: 0.211 µM
[14]; NCI-H460, read-out: Lung cancer, EC50 (μM) NCI-H460
  EC50: 0.207 µM
[14]; NCI-H522, read-out: Lung cancer, EC50 (μM) NCI-H522
  EC50: 0.119 µM
[15]; OV-90, read-out: Ovarian cancer, EC50 (μM) OV-90
  EC50: 0.317 µM
[15]; OVCAR-3, read-out: Ovarian cancer, EC50 (μM) OVCAR-3
  EC50: 0.095 µM
[15]; PA-1, read-out: Ovarian cancer, EC50 (μM) PA1
  EC50: 0.154 µM
[15]; TOV112D, read-out: Ovarian cancer, EC50 (μM) TOV-112D
  EC50: 0.106 µM
[16]; BXPC-3, read-out: Pancreatic cancer, EC50 BxPC3
  EC50: 310 nM
[16]; CAPAN-1, read-out: Pancreatic cancer, EC50 Capan1
  EC50: 215 nM
[16]; Capan-2, read-out: Pancreatic cancer, EC50 Capan2
  EC50: 409 nM
[16]; MIA PaCa-2, read-out: Pancreatic cancer, EC50 MIA PaCa-2
  EC50: 88 nM
[16]; PANC-1, read-out: Pancreatic cancer, EC50 PANC-1
  EC50: 276 nM
[16]; Panc 05.04, read-out: Pancreatic cancer, EC50 PANC 05.04
  EC50: 226 nM
[16]; read-out: Pancreatic cancer, EC50 UPAFII
  EC50: 125 nM
[17]; 22Rv1, read-out: Prostate cancer EC50 22Rv1
  EC50: 142 nM
[17]; DU-145, read-out: Prostate cancer EC50 Du-145
  EC50: 232 nM
[17]; LNCaP-Clone-FGC, read-out: Prostate cancer EC50 LNCap clone FGC
  EC50: 257 nM
[17]; PC-3, read-out: Prostate cancer EC50 PC3
  EC50: 174 nM
[17]; VCaP, read-out: Prostate cancer EC50 VCaP (Sigma)
  EC50: 509 nM
[18]
  EC50: 19.9 nM
